From patent publication US9045393B2, “Derivatives of 3.5-seco-4-norcholestane and use thereof” (TROPHOS, priority 2004, dated 2015)

Key:
rat motoneurons = test: in vitro model of trophic deprivation of rat motoneurons (survival, calcein fluorescence); format: cell-based; settings: 3 days in basal medium, compared with medium supplemented with neurotrophic factors, ratio greater than 0 = positive effect
From the text: Useful reference may be made to the WO 0142784 Patent Application of the applicant on the cultivation of spinal cord motoneurons.
The spinal cord of rat E14 embryos is dissected and the ventral portion is dissociated by trituration after trypsination. The motoneurons are separated from the other spinal cells by a known method (Camu et al., 1993, Purification of spinal motoneurons from chicken and rat embryos by immunopanning. in “Immunoselection Strategies for Neural cell culture”, Neuroprotocols: A companion to Methods in Neurosciences 2, 191-199; Henderson et al., 1993. Neutrophins promote motor neuron survival and are present in embryonic limb bud. Nature 363 (6426): 266-70). The cells are centrifuged on a density gradient. Motoneurons are enriched in the fraction of large cells (the less dense cells). The cells of this fraction are incubated with an anti-p75 antibody, a surface antigen present on motoneurons. Secondary antibodies coupled with magnetic beads are added and the mixture of cells is passed through a column in a magnet (Arce et al., 1999). Only the motoneurons are retained: their purity is of the order of 90%.
The motoneurons are sown with low density in culture wells on a substrate of polyornithine-laminin in a neurobasal medium supplemented according to Raoul et al., 1999, Programmed cell death of embryonic motoneurons triggered through the Fas death receptor. J. Cell. Biol. 147(5): 1049-62. Negative controls (absence of trophic factors) and positive controls (in the presence of BDNF (Brain-Derived Neurotrophic Factor) at 1 ng/mL, GDNF (Glial-Derived Neurotrophic Factor) at 1 ng/mL, and CNTF (Ciliary Neurotrophic Factor) at 10 ng/mL, marketed by the US company PEPROTECH, Inc. and the Sigma-Aldrich company), are included in each series.
The compounds to be tested are added 60 minutes after sowing and the cultures are maintained at 37° C. under 5% CO2 for 3 days.
The motoneurons have a spontaneous tendency of dying in the absence of neurotrophic factors (Pettmann and Henderson, 1998, Neuronal cell death. Neuron 20(4): 633-47). After 3 days, survival is evaluated by measuring fluorescence after incubating the cells in the presence of calcein which becomes fluorescent in living cells.
After 3 days in culture at 37° C., under 5% CO2 and in saturating humidity, up to 50% of the initially sown motoneurons survive in the medium supplemented with neurotrophic factors, while less than 15% of the motoneurons survive in a basal medium alone.
The activity of the compounds to be tested was evaluated by their capability of preventing death of motoneurons when they are added to the neurobasal medium as compared with survival of motoneurons in a medium supplemented with neurotrophic factors.
This survival rate is expressed by a number, the ratio. If the ratio is greater than 0, the effect of the compounds is positive on the survival of the motoneurons.

[1] = tested on: motoneurons of the facial nucleus; test: axotomy of the facial nerve in newborn rats, count of motoneurons of the facial nucleus; format: in vivo, rat; settings: axotomized newborn rats, treated orally, seven days after section
[2] = Toxicological study in mice; format: in vivo; settings: intra-peritoneal route, 30 mg/kg/day, daily administration up to 14 days

| Molecule | Ratio (survival rate of the motoneurons) (rat motoneurons; concentration 3 μM) | further results |
| --- | --- | --- |
| 3,5-seco-4-nor-cholestan-5-one oxime-3-methyl alcohol [Compound 4] | 0.5 | increase of survival of the motoneurons of the facial nucleus ([1]; dose of 30 mg/kg): up to 30% |
| 3,5-seco-4-nor-cholestan-5-one-3-methyl ketone [Compound 13] | 0.7 | – |
| CNC(=O)CCC1(C)C(=NO)CCC2C1CCC1(C)C(C(C)CCCC(C)C)CCC21 (stereo not shown) [Compound 1, 3,5-seco-4-nor-cholestan-5-one oxime-3-methyl-amide] | 0.4 | – |
| CC(C)CCCC(C)C1CCC2C3CCC(=O)C(C)(CCC(C)(C)O)C3CCC12C (stereo not shown) [Compound 2, 3,5-seco-4-nor-cholestan-5-one-3-dimethyl alcohol] | 0.5 | – |
| CC(C)CCCC(C)C1CCC2C3CCC(=NO)C(C)(CCC(C)(C)O)C3CCC12C (stereo not shown) [Compound 3, 3,5-seco-4-nor-cholestan-5-one oxime-3-dimethyl alcohol] | 0.7 | toxicity [2]: did not show any significant toxicity; increase of survival of the motoneurons of the facial nucleus ([1]; dose of 10 mg/kg): up to 25% |
| CNCCCC1(C)C(=NO)CCC2C1CCC1(C)C(C(C)CCCC(C)C)CCC21 (stereo not shown) [Compound 5, 3,5-seco-4-nor-cholestan-5-one oxime-3-methyl-amine] | 0.3 | – |
| CON=C1CC[C@H]2[C@@H]3CC[C@H]([C@H](C)CCCC(C)C)[C@@]3(C)CC[C@@H]2[C@@]1(C)CCCO [Compound 6, 3,5-seco-4-nor-cholestan-5-one methyloxime-3-ol] | 0.4 | – |
| CC(C)CCCC(C)C1CCC2C3CCC(=NOCC(=O)O)C(C)(CCCO)C3CCC12C (stereo not shown) [Compound 7, 3,5-seco-4-nor-cholestan-5-one carboxymethyl-oxime-3-ol] | 0.4 | – |
| CC(C)CCCC(C)C1CCC2C3CCC(=NO)C(C)(CCC(=O)O)C3CCC12C (stereo not shown) [Compound 8, 3,5-seco-4-nor-cholestan-5-one oxime-3-oic acid] | 0.4 | – |
| CC(C)CCCC(C)C1CCC2C3CCC(O)C(C)(CCCO)C3CCC12C (stereo not shown) [Compound 9, 3,5-seco-4-nor-cholestane-3,5-diol] | 0.4 | – |
| CC(C)CCCC(C)C1CCC2C3CCC(=O)C(C)(CCCO)C3CCC12C (stereo not shown) [Compound 10, 3,5-seco-4-nor-cholestan-5-one-3-ol] | 0.6 | – |
| CC(C)CCC[C@@H](C)[C@H]1CC[C@H]2[C@@H]3CC/C(=N\O)[C@](C)(CCCO)[C@H]3CC[C@]12C [Compound 11, 3,5-seco-4-nor-cholestan-5-one oxime-3-ol] | 0.8 | toxicity [2]: did not show any significant toxicity; increase of survival of the motoneurons of the facial nucleus ([1]; dose between 3 and 30 mg/kg, as compared with non-sectioned nerve): up to 40% |
| CC(C)CCCC(C)C1CCC2C3CCC(=NO)C(C)(CCC=NO)C3CCC12C (stereo not shown) [Compound 12, 3,5-seco-4-nor-cholestan-5-one oxime-3-one oxime] | 0.7 | – |
| CC(C)CCCC(C)C1CCC2C3CCC(=O)C(C)(CCC(=O)O)C3CCC12C (stereo not shown) [Compound 14, 3,5-seco-4-nor-cholestan-5-one-3-oic acid] | – | Ratio (survival rate of the motoneurons) (rat motoneurons; concentration 10 μM): 0.4 |
